Data: US20250197389A1, “NITROGEN-CONTAINING HETEROCYCLIC COMPOUND” (SHANGHAI SHIJIANG BIOTECHNOLOGY CO., LTD, priority 2022, published 2025)

Tests used:
[1] = tested on: mPTP-active Daoy cell; experiment: Inhibitory effect on mPTP-active Daoy cell (Promega CellTiter-Glo, intracellular ATP); type: cell-based, human; details: Daoy cell transfected with empty virus vector without PPIF shRNA
[2] = tested on: mPTP-inactive Daoy cell; experiment: Inhibitory effect on mPTP-inactive Daoy cell (PPIF shRNA; Promega CellTiter-Glo, intracellular ATP); type: cell-based, human; details: Daoy cell transfected with virus vector carrying PPIF shRNA
From the text: The activity of mitochondria permeability transition pore (mPTP) was regulated by the PPIF protein. […] PPIF protein activity was restricted by the expression level of PPIF protein in cell.

CCCCCOc1c(OC)ccc2c1C(C(Cl)(Cl)Cl)N1CCc3cc4c(cc3C1=C2)OCO4 (stereo not shown) [AB35505]
IC50 ([1]; Homo sapiens, Daoy): 1.24 µM | IC50 ([2]; Homo sapiens, Daoy): 0.42 µM

COc1ccc2c(c1OC)C(C1CCCC1)N1CCc3cc4c(cc3C1=C2CCc1ccccc1)OCO4 (stereo not shown) [AB35448]
IC50 ([1]; Homo sapiens, Daoy): 3.53 µM | IC50 ([2]; Homo sapiens, Daoy): 1.72 µM

COc1ccc2c(c1OCCCCc1ccccc1)C(C(Cl)(Cl)Cl)N1CCc3cc4c(cc3C1=C2)OCO4 (stereo not shown) [AB35535]
IC50 ([1]; Homo sapiens, Daoy): 0.59 µM | IC50 ([2]; Homo sapiens, Daoy): 0.18 µM

COc1ccc2c(c1OCc1ccccc1-c1ccccc1)C(C(Cl)(Cl)Cl)N1CCc3cc4c(cc3C1=C2)OCO4 (stereo not shown) [AB35531]
IC50 ([1]; Homo sapiens, Daoy): 3.6 µM | IC50 ([2]; Homo sapiens, Daoy): 1.55 µM

COc1ccc2c(c1NCCc1ccccc1)C(C1CCCC1)N1CCc3cc4c(cc3C1=C2)OCO4 (stereo not shown) [AB35457]
IC50 ([1]; Homo sapiens, Daoy): 3.25 µM | IC50 ([2]; Homo sapiens, Daoy): 1.52 µM

COc1ccc2c(c1OCCCCl)C(C1CCCC1)N1CCc3cc4c(cc3C1=C2)OCO4 (stereo not shown) [AB35434]
IC50 ([1]; Homo sapiens, Daoy): 5.21 µM | IC50 ([2]; Homo sapiens, Daoy): 2.48 µM

COc1ccc2c(c1OCCCF)C(C)N1CCc3cc4c(cc3C1=C2)OCO4 (stereo not shown) [AB35485]
IC50 ([1]; Homo sapiens, Daoy): 16.3 µM | IC50 ([2]; Homo sapiens, Daoy): 5.27 µM

CCCC1=C2c3cc4c(cc3CCN2C(C(Cl)(Cl)Cl)c2c1ccc1c2OCO1)OCO4 (stereo not shown) [AB36427]
IC50 ([1]; Homo sapiens, Daoy): 11.9 µM | IC50 ([2]; Homo sapiens, Daoy): 4.3 µM

CC1c2c(ccc3c2OCO3)C=C2c3cc4c(cc3CCN21)OCO4 (stereo not shown) [AB35413]
IC50 ([1]; Homo sapiens, Daoy): 13.3 µM | IC50 ([2]; Homo sapiens, Daoy): 6.87 µM

COc1ccc2c(c1N1CCCCCC1)CN1CCc3cc4c(cc3C1=C2)OCO4 [AB36493]
IC50 ([1]; Homo sapiens, Daoy): 1.34 µM | IC50 ([2]; Homo sapiens, Daoy): 0.35 µM

CCCOc1c(OC)ccc2c1CN1CCc3cc4c(cc3C1=C2)OCO4 [AB35536]
IC50 ([1]; Homo sapiens, Daoy): 1.3 µM | IC50 ([2]; Homo sapiens, Daoy): 0.4 µM

COc1ccc2c(c1OC)C(C(Cl)(Cl)Cl)N1CCc3cc4c(cc3C1=C2CCCCCCCl)OCO4 (stereo not shown) [AB35524]
IC50 ([1]; Homo sapiens, Daoy): 4.04 µM | IC50 ([2]; Homo sapiens, Daoy): 1.9 µM

CCC1=C2c3cc4c(cc3CCN2C(C(Cl)(Cl)Cl)c2c1ccc(OC)c2OC)OCO4 (stereo not shown) [AB35488]
IC50 ([1]; Homo sapiens, Daoy): 5.27 µM | IC50 ([2]; Homo sapiens, Daoy): 2.02 µM

CCCCCCCCC1=C2c3cc4c(cc3CCN2C(C(Cl)(Cl)Cl)c2c1ccc(OC)c2OC)OCO4 (stereo not shown) [AB35497]
IC50 ([1]; Homo sapiens, Daoy): 3.28 µM | IC50 ([2]; Homo sapiens, Daoy): 1.15 µM

COc1ccc2c(c1OCCN1CCCCC1)C(C(Cl)(Cl)Cl)N1CCc3cc4c(cc3C1=C2)OCO4 (stereo not shown) [AB35420]
IC50 ([1]; Homo sapiens, Daoy): 9.55 µM | IC50 ([2]; Homo sapiens, Daoy): 4.59 µM

COc1ccc2c(c1OCCCCOc1ccccc1)C(C1CCCC1)N1CCc3cc4c(cc3C1=C2)OCO4 (stereo not shown) [AB35454]
IC50 ([1]; Homo sapiens, Daoy): 2.96 µM | IC50 ([2]; Homo sapiens, Daoy): 1.28 µM

CCCCC1c2c(c(Br)cc(OC)c2OC)C=C2c3cc4c(cc3CCN21)OCO4 (stereo not shown) [AB31873]
IC50 ([1]; Homo sapiens, Daoy): 6.44 µM | IC50 ([2]; Homo sapiens, Daoy): 3.13 µM

CCCCCC1=C2c3cc4c(cc3CCN2C(C(Cl)(Cl)Cl)c2c1ccc(OC)c2OC)OCO4 (stereo not shown) [AB35418]
IC50 ([1]; Homo sapiens, Daoy): 3.25 µM | IC50 ([2]; Homo sapiens, Daoy): 1.56 µM

CCCC1=C2c3cc4c(cc3CCN2C(C2CCCC2)c2c1ccc(OC)c2OC)OCO4 (stereo not shown) [AB35504]
IC50 ([1]; Homo sapiens, Daoy): 10.6 µM | IC50 ([2]; Homo sapiens, Daoy): 4.25 µM

COc1ccc2c(c1OC)C(C(Cl)(Cl)Cl)N1CCc3cc4c(cc3C1=C2Cc1ccccn1)OCO4 (stereo not shown) [AB35447]
IC50 ([1]; Homo sapiens, Daoy): 22.9 µM | IC50 ([2]; Homo sapiens, Daoy): 25.7 µM

COc1ccc2c(c1OC)C(C1CCCC1)N1CCc3cc4c(cc3C1=C2CCCCCCBr)OCO4 (stereo not shown) [AB35523]
IC50 ([1]; Homo sapiens, Daoy): 3.22 µM | IC50 ([2]; Homo sapiens, Daoy): 1.39 µM

[2H]C1([2H])c2c(ccc(OC)c2OC)C=C2c3cc4c(cc3CCN21)OCO4 [AB36476]
IC50 [1]: 2.4 µM | IC50 [2]: 1.1 µM

COc1ccc2c(c1OC)C(n1cccc1)N1CCc3cc4c(cc3C1=C2)OCO4 (stereo not shown) [AB36520]
IC50 ([1]; Homo sapiens, Daoy): 16.1 µM | IC50 ([2]; Homo sapiens, Daoy): 16 µM

COc1ccc2c(c1OCCCCl)C(C)N1CCc3cc4c(cc3C1=C2)OCO4 (stereo not shown) [AB35456]
IC50 ([1]; Homo sapiens, Daoy): 5.77 µM | IC50 ([2]; Homo sapiens, Daoy): 2.76 µM

COc1ccc2c(c1OC)C(c1ccccc1)N1CCc3cc4c(cc3C1=C2)OCO4 (stereo not shown) [AB36467]
IC50 ([1]; Homo sapiens, Daoy): 12.1 µM | IC50 ([2]; Homo sapiens, Daoy): 4.63 µM

COc1ccc2c(c1OC(=O)CC13CC4CC(CC(C4)C1)C3)C(C1CCCC1)N1CCc3cc4c(cc3C1=C2)OCO4 (stereo not shown) [AB35459]
IC50 ([1]; Homo sapiens, Daoy): 12.5 µM | IC50 ([2]; Homo sapiens, Daoy): 6.18 µM

COc1ccc2c(c1OCCNC(=O)OC(C)(C)C)C(C)N1CCc3cc4c(cc3C1=C2)OCO4 (stereo not shown) [AB35424]
IC50 ([1]; Homo sapiens, Daoy): 13.8 µM | IC50 ([2]; Homo sapiens, Daoy): 6.18 µM

COc1ccc2c(c1OCCCCCl)C(C(Cl)(Cl)Cl)N1CCc3cc4c(cc3C1=C2)OCO4 (stereo not shown) [AB35496]
IC50 ([1]; Homo sapiens, Daoy): 12.3 µM | IC50 ([2]; Homo sapiens, Daoy): 5.28 µM

COc1ccc2c(c1OC)C(C1CCC1)N1CCc3cc4c(cc3C1=C2)OCO4 (stereo not shown) [AB36447]
IC50 ([1]; Homo sapiens, Daoy): 6.73 µM | IC50 ([2]; Homo sapiens, Daoy): 2.65 µM

COc1ccc2c(c1N1CCC(NC(=O)OC(C)(C)C)CC1)C(C(Cl)(Cl)Cl)N1CCc3cc4c(cc3C1=C2)OCO4 (stereo not shown) [AB35465]
IC50 ([1]; Homo sapiens, Daoy): 5.43 µM | IC50 ([2]; Homo sapiens, Daoy): 2.68 µM

COc1ccc2c(c1OCCCCOc1ccccc1)C(C)N1CCc3cc4c(cc3C1=C2)OCO4 (stereo not shown) [AB31881]
IC50 ([1]; Homo sapiens, Daoy): 4.34 µM | IC50 ([2]; Homo sapiens, Daoy): 2.12 µM

COc1ccc2c(c1OCCF)CN1CCc3cc4c(cc3C1=C2)OCO4 [AB35599]
IC50 ([1]; Homo sapiens, Daoy): 5.41 µM | IC50 ([2]; Homo sapiens, Daoy): 2.43 µM

COc1ccc2c(c1N1CCC(Cl)CC1)CN1CCc3cc4c(cc3C1=C2)OCO4 [AB35550]
IC50 ([1]; Homo sapiens, Daoy): 6.36 µM | IC50 ([2]; Homo sapiens, Daoy): 2.05 µM

ClC(Cl)(Cl)C1c2c(ccc3c2OCO3)C=C2c3cc4c(cc3CCN21)OCO4 (stereo not shown) [AB35421]
IC50 ([1]; Homo sapiens, Daoy): > 50 µM | IC50 ([2]; Homo sapiens, Daoy): 24.9 µM

CC1=C2c3cc4c(cc3CCN2C(C(Cl)(Cl)Cl)c2c1ccc1c2OCO1)OCO4 (stereo not shown) [AB36442]
IC50 ([1]; Homo sapiens, Daoy): 29.9 µM | IC50 ([2]; Homo sapiens, Daoy): 29.2 µM

COc1ccc2c(c1OCCCF)CN1CCc3cc4c(cc3C1=C2)OCO4 [AB35590]
IC50 ([1]; Homo sapiens, Daoy): 4.54 µM | IC50 ([2]; Homo sapiens, Daoy): 1.41 µM

CCCCC1=C2c3cc4c(cc3CCN2C(C(Cl)(Cl)Cl)c2c1ccc(OC)c2OC)OCO4 (stereo not shown) [AB35502]
IC50 ([1]; Homo sapiens, Daoy): 6.14 µM | IC50 ([2]; Homo sapiens, Daoy): 2.97 µM

CCCCCC1=C2c3cc4c(cc3CCN2C(C)c2c1ccc(OC)c2OC)OCO4 (stereo not shown) [AB35422]
IC50 ([1]; Homo sapiens, Daoy): 5.27 µM | IC50 ([2]; Homo sapiens, Daoy): 2.59 µM

CCCC1=C2c3cc4c(cc3CCN2C(C2CCCC2)c2c1ccc1c2OCO1)OCO4 (stereo not shown) [AB36432]
IC50 ([1]; Homo sapiens, Daoy): 4.32 µM | IC50 ([2]; Homo sapiens, Daoy): 1.88 µM

COc1ccc2c(c1OC/C=C(\C)CCC=C(C)C)C(C(Cl)(Cl)Cl)N1CCc3cc4c(cc3C1=C2)OCO4 (stereo not shown) [AB35405]
IC50 ([1]; Homo sapiens, Daoy): 2.68 µM | IC50 ([2]; Homo sapiens, Daoy): 1.21 µM

COc1ccc2c(c1N1CCN(C)CC1)C(C1CCCC1)N1CCc3cc4c(cc3C1=C2)OCO4 (stereo not shown) [AB35510]
IC50 [1]: 0.83 µM | IC50 [2]: 0.29 µM

COc1ccc2c(c1N1CCC(C(F)(F)F)CC1)C(C(Cl)(Cl)Cl)N1CCc3cc4c(cc3C1=C2)OCO4 (stereo not shown) [AB35514]
IC50 ([1]; Homo sapiens, Daoy): 3.42 µM | IC50 ([2]; Homo sapiens, Daoy): 1.33 µM

COc1c(OCCCCl)ccc2c1C(C1CCCC1)N1CCc3cc4c(cc3C1=C2)OCO4 (stereo not shown) [AB36474]
IC50 ([1]; Homo sapiens, Daoy): 4.26 µM | IC50 ([2]; Homo sapiens, Daoy): 1.39 µM

COc1ccc2cc3n(c(=O)c2c1OC)CCc1cc2c(cc1-3)OCO2 [AB36496]
IC50 ([1]; Homo sapiens, Daoy): 86.3 µM | IC50 ([2]; Homo sapiens, Daoy): > 100 µM

CCCC1c2c(ccc3c2OCO3)C=C2c3cc4c(cc3CCN21)OCO4 (stereo not shown) [AB36416]
IC50 ([1]; Homo sapiens, Daoy): 3.78 µM | IC50 ([2]; Homo sapiens, Daoy): 1.44 µM

C1=C2c3cc4c(cc3CCN2C(C2CCCC2)c2c1ccc1c2OCO1)OCO4 (stereo not shown) [AB36423]
IC50 ([1]; Homo sapiens, Daoy): 6.76 µM | IC50 ([2]; Homo sapiens, Daoy): 2.02 µM

COc1ccc2c(c1OCCCBr)CN1CCc3cc4c(cc3C1=C2)OCO4 [AB35544]
IC50 ([1]; Homo sapiens, Daoy): 0.72 µM | IC50 ([2]; Homo sapiens, Daoy): 0.2 µM

COc1ccc2c(c1OC)C(C1CCCC1)N1CCc3cc4c(cc3C1=C2CCCc1ccccc1)OCO4 (stereo not shown) [AB35436]
IC50 ([1]; Homo sapiens, Daoy): 4.8 µM | IC50 ([2]; Homo sapiens, Daoy): 2.28 µM

COc1ccc2c(c1Cl)CN1CCc3cc4c(cc3C1=C2)OCO4 [AB36450]
IC50 ([1]; Homo sapiens, Daoy): 5.12 µM | IC50 ([2]; Homo sapiens, Daoy): 2.23 µM

COc1ccc2c(c1OCCCCCCNC(=O)OC(C)(C)C)C(C(Cl)(Cl)Cl)N1CCc3cc4c(cc3C1=C2)OCO4 (stereo not shown) [AB35407]
IC50 ([1]; Homo sapiens, Daoy): 2.83 µM | IC50 ([2]; Homo sapiens, Daoy): 1.34 µM
